ChEMBL document CHEMBL1275548, “Interspecies recombination occurs frequently in quinolone resistance-determining regions of clinical isolates of Streptococcus pyogenes” (2008)

Test system: Streptococcus pyogenes
Assay: Antibacterial activity against Streptococcus pyogenes clinical isolate by agar dilution method

`O=C(O)c1cn(C2CC2)c2cc(N3CCNCC3)c(F)cc2c1=O` [CIPROFLOXACIN] gave an MIC of no less than 2 µg/mL.
